Among the data in ChEMBL document CHEMBL1133236, “Synthesis and antifungal activities of 5/6-arylamino-4,7-dioxobenzothiazoles” (Bioorg Med Chem Lett, 2000) are IC50 and MIC values, retold here.

In brackets after ≈: the same amount, converted by molar mass.

One test relates to HepG2. In words: In vitro cytotoxicity against HepG2 cells (Hepatocarcinoma from ATCC) by MTT assay. Type of test: functional, cell-based, Homo sapiens.
For the next test, the system named is Aspergillus niger. In words: Antifungal activity against Aspergillus niger KCTC 1231. Type of test: functional.
The next test concerns Pichia kudriavzevii. Put plainly: Antifungal activity against Candida krusei ATCC 749. Type of test: functional.
The subject of a further test is Candida albicans. In words: Antifungal activity against Candida albicans ATCC 10231. Type of test: functional.
Another test relates to Candida tropicalis. In words: Antifungal activity against Candida tropicalis ATCC 28775. Type of test: functional.
The mark [1] stands for this setting: Homo sapiens, HepG2, read-out: IC50.

In turn, CISPLATIN showed an IC50 with HepG2 (hepg2) of 0.33 µg/mL.

In the case of `CCOc1ccc(NC2=CC(=O)c3ncsc3C2=O)cc1`, the minimum inhibitory concentration (MIC) in the test on Aspergillus niger was determined as 3.2 µg/mL (≈ 10.7 µM); in the test on Pichia kudriavzevii it was 6.3 µg/mL (≈ 21 µM); with Candida albicans it was 12.5 µg/mL (≈ 41.6 µM); in the test on Candida tropicalis, 12.5 µg/mL (≈ 41.6 µM). Moreover, the IC50 in the test on HepG2 (setting [1]) turned out to be 23.6 µg/mL (≈ 78.6 µM).

Regarding `Cc1nc2c(s1)C(=O)C=C(Nc1ccc(C)c(C)c1)C2=O`, the MIC came out at 12.5 µg/mL (≈ 41.9 µM) in the test on Aspergillus niger, 3.2 µg/mL (≈ 10.7 µM) in the test with Pichia kudriavzevii, 12.5 µg/mL (≈ 41.9 µM) against Candida albicans and 0.4 µg/mL (≈ 1.34 µM) in the test with Candida tropicalis. In the test with HepG2 (setting [1]), the IC50 was found to be 4.8 µg/mL (≈ 16.1 µM).

`O=C1C=C(Nc2cccc(F)c2)C(=O)c2scnc21`: the MIC came out at 1.6 µg/mL (≈ 5.83 µM) against Aspergillus niger, 3.2 µg/mL (≈ 11.7 µM) against Pichia kudriavzevii, 12.5 µg/mL (≈ 45.6 µM) in the test with Candida albicans and 12.5 µg/mL (≈ 45.6 µM) in the test with Candida tropicalis. Also, the concentration for half-maximal inhibition (IC50) in the test with HepG2 (setting [1]) is above 100 µg/mL.

With `Cc1nc2c(s1)C(=O)C=C(Nc1ccc(Cl)cc1)C2=O`, the MIC is 6.3 µg/mL (≈ 20.7 µM) in the test on Aspergillus niger, 25 µg/mL (≈ 82 µM) with Pichia kudriavzevii, 12.5 µg/mL (≈ 41 µM) against Candida albicans and 25 µg/mL (≈ 82 µM) with Candida tropicalis. Also, the half-inhibitory concentration (IC50) with HepG2 (setting [1]) turned out to be 3.4 µg/mL (≈ 11.2 µM).

`O=C1C=C(Nc2ccc(Cl)cc2)C(=O)c2scnc21`: the minimal inhibitory concentration (MIC) in the test on Aspergillus niger is 12.5 µg/mL (≈ 43 µM); with Pichia kudriavzevii, 25 µg/mL (≈ 86 µM); with Candida albicans it was 12.5 µg/mL (≈ 43 µM); in the test with Candida tropicalis, 12.5 µg/mL (≈ 43 µM). In addition, the 50% inhibitory concentration (IC50) in the test with HepG2 (setting [1]) was 16.4 µg/mL (≈ 56.4 µM).

`CCCCCCc1ccc(NC2=CC(=O)c3sc(C)nc3C2=O)cc1`: the MIC against Aspergillus niger is 12.5 µg/mL (≈ 35.3 µM); with Pichia kudriavzevii, 12.5 µg/mL (≈ 35.3 µM); in the test on Candida albicans, 12.5 µg/mL (≈ 35.3 µM); in the test on Candida tropicalis, 6.3 µg/mL (≈ 17.8 µM). For the same compound, the IC50 in the test on HepG2 (setting [1]) worked out at 22 µg/mL (≈ 62.1 µM).

For the compound `Cc1nc2c(s1)C(=O)C=C(Nc1ccccc1)C2=O`, the minimum inhibitory concentration (MIC) against Aspergillus niger amounted to 12.5 µg/mL (≈ 46.2 µM); in the test with Pichia kudriavzevii, 0.4 µg/mL (≈ 1.48 µM); in the test on Candida albicans it was 6.3 µg/mL (≈ 23.3 µM); with Candida tropicalis it was 1.6 µg/mL (≈ 5.92 µM). Moreover, the 50% inhibitory concentration (IC50) with HepG2 (setting [1]) worked out at 1.5 µg/mL (≈ 5.55 µM).

Turning to `Cc1nc2c(s1)C(=O)C=C(Nc1ccc(F)cc1)C2=O`, the MIC amounted to 3.2 µg/mL (≈ 11.1 µM) against Aspergillus niger, 3.2 µg/mL (≈ 11.1 µM) in the test with Pichia kudriavzevii, 3.2 µg/mL (≈ 11.1 µM) with Candida albicans and 6.3 µg/mL (≈ 21.9 µM) in the test with Candida tropicalis. Further, the half-maximal inhibitory concentration (IC50) in the test with HepG2 (setting [1]) was found to be 1.6 µg/mL (≈ 5.55 µM).

Regarding `COC1=CC(=O)c2sc(C)nc2C1=O`, the minimum inhibitory concentration (MIC) is 12.5 µg/mL (≈ 59.7 µM) in the test on Aspergillus niger, 50 µg/mL (≈ 239 µM) with Pichia kudriavzevii, 25 µg/mL (≈ 119 µM) against Candida albicans and 25 µg/mL (≈ 119 µM) in the test on Candida tropicalis.

In the case of `Cc1nc2c(s1)C(=O)C=C(Nc1ccc(C(F)(F)F)cc1)C2=O`, the minimum inhibitory concentration (MIC) in the test with Aspergillus niger is 6.3 µg/mL (≈ 18.6 µM); in the test on Pichia kudriavzevii, 3.2 µg/mL (≈ 9.46 µM); against Candida albicans, 12.5 µg/mL (≈ 36.9 µM); in the test on Candida tropicalis, 12.5 µg/mL (≈ 36.9 µM). In addition, the half-maximal inhibitory concentration (IC50) in the test on HepG2 (setting [1]) is above 100 µg/mL.

Turning to `O=C1C=C(Nc2ccccc2)C(=O)c2scnc21`, the MIC was found to be 3.2 µg/mL (≈ 12.5 µM) in the test on Aspergillus niger, 6.3 µg/mL (≈ 24.6 µM) against Pichia kudriavzevii, 12.5 µg/mL (≈ 48.8 µM) against Candida albicans and 6.3 µg/mL (≈ 24.6 µM) against Candida tropicalis. Moreover, the IC50 in the test on HepG2 (setting [1]) is 14.7 µg/mL (≈ 57.4 µM).

As for `O=C1C=C(Nc2ccc(OC(F)(F)F)cc2)C(=O)c2scnc21`, the MIC against Aspergillus niger stood at 3.2 µg/mL (≈ 9.4 µM); against Pichia kudriavzevii, 3.2 µg/mL (≈ 9.4 µM); against Candida albicans it was 12.5 µg/mL (≈ 36.7 µM); with Candida tropicalis it was 12.5 µg/mL (≈ 36.7 µM). For the same compound, the IC50 in the test with HepG2 (setting [1]) is above 100 µg/mL.

As to `Cc1ccc(NC2=CC(=O)c3sc(C)nc3C2=O)cc1`, the minimal inhibitory concentration (MIC) is 12.5 µg/mL (≈ 44 µM) against Aspergillus niger, 1.6 µg/mL (≈ 5.63 µM) against Pichia kudriavzevii, 6.3 µg/mL (≈ 22.2 µM) in the test on Candida albicans and 1.6 µg/mL (≈ 5.63 µM) against Candida tropicalis. In addition, the IC50 in the test on HepG2 (setting [1]) was 1.2 µg/mL (≈ 4.22 µM).

Turning to `Cc1nc2c(s1)C(=O)C=C(Nc1cccc(Br)c1)C2=O`, the minimal inhibitory concentration (MIC) was 12.5 µg/mL (≈ 35.8 µM) in the test on Aspergillus niger, 6.3 µg/mL (≈ 18 µM) with Pichia kudriavzevii, 12.5 µg/mL (≈ 35.8 µM) in the test on Candida albicans and 0.8 µg/mL (≈ 2.29 µM) with Candida tropicalis. For the same compound, in the test with HepG2 (setting [1]), the concentration for half-maximal inhibition (IC50) is 15 µg/mL (≈ 43 µM).

As for `Cc1nc2c(s1)C(=O)C=C(Nc1cccc(Cl)c1)C2=O`, the MIC with Aspergillus niger came out at 12.5 µg/mL (≈ 41 µM); against Pichia kudriavzevii, 6.3 µg/mL (≈ 20.7 µM); in the test with Candida albicans it was 12.5 µg/mL (≈ 41 µM); in the test with Candida tropicalis it was 6.3 µg/mL (≈ 20.7 µM). The concentration for half-maximal inhibition (IC50) in the test with HepG2 (setting [1]) turned out to be 5.7 µg/mL (≈ 18.7 µM).

For `CCOc1ccc(NC2=CC(=O)c3sc(C)nc3C2=O)cc1`, the MIC against Aspergillus niger was 1.6 µg/mL (≈ 5.09 µM); with Pichia kudriavzevii, 3.2 µg/mL (≈ 10.2 µM); in the test on Candida albicans, 3.2 µg/mL (≈ 10.2 µM); against Candida tropicalis it was 6.3 µg/mL (≈ 20 µM). Moreover, in the test with HepG2 (setting [1]), the IC50 stood at 4.9 µg/mL (≈ 15.6 µM).

Regarding `O=C1C=C(Nc2ccc(F)cc2)C(=O)c2scnc21`, the minimal inhibitory concentration (MIC) against Aspergillus niger is 3.2 µg/mL (≈ 11.7 µM); with Pichia kudriavzevii, 3.2 µg/mL (≈ 11.7 µM); in the test with Candida albicans, 12.5 µg/mL (≈ 45.6 µM); with Candida tropicalis it was 6.3 µg/mL (≈ 23 µM). In addition, the IC50 in the test with HepG2 (setting [1]) came to 17.9 µg/mL (≈ 65.3 µM).

As for `Cc1nc2c(s1)C(=O)C=C(Nc1ccc(OC(F)(F)F)cc1)C2=O`, the minimum inhibitory concentration (MIC) against Aspergillus niger came out at 6.3 µg/mL (≈ 17.8 µM); against Pichia kudriavzevii it was 25 µg/mL (≈ 70.6 µM); against Candida albicans, 12.5 µg/mL (≈ 35.3 µM); in the test with Candida tropicalis, 0.8 µg/mL (≈ 2.26 µM). In addition, the IC50 with HepG2 (setting [1]) is above 100 µg/mL.

As to `COC1=CC(=O)c2ncsc2C1=O`, the MIC against Aspergillus niger was 25 µg/mL (≈ 128 µM); with Pichia kudriavzevii, 12.5 µg/mL (≈ 64 µM); against Candida albicans it was 50 µg/mL (≈ 256 µM); in the test with Candida tropicalis, 25 µg/mL (≈ 128 µM).

For `Nc1nc(=O)[nH]cc1F` [FLUCYTOSINE], the minimum inhibitory concentration (MIC) with Aspergillus niger was 1.6 µg/mL (≈ 12.4 µM); against Pichia kudriavzevii, 3.2 µg/mL (≈ 24.8 µM); against Candida albicans, 3.2 µg/mL (≈ 24.8 µM); against Candida tropicalis, 50 µg/mL (≈ 387 µM).
